IC50 data for ten molecules are collected here from patent US11542259B2, “Compounds for the treatment of kinase-dependent disorders” (Exelixis, Inc., priority 2018, dated 2023).

Some results are limits rather than exact numbers.

In test [1] the target is Human Met (residues R974-S1390 with A1209G and V1290L) (Homo sapiens, UniProt P08581). Briefly: Human Met kinase assay (33P radiometric, KinaseProfiler). The conditions noted are these: 10 μM ATP, read-out: c-Met IC50. It is filed as biochemical.
A further test concerns the target Mer (Homo sapiens (Human), UniProt Q12866). In words: Mer autophosphorylation ELISA in transient transfected 293A cells. The note with it: cellular, MERTK transfected 293A cells. It is filed as cell-based. The essentials:
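293A cells transiently transfected with human MERTK DNA, then treated 1 h with 8-point compound dilutions in serum-free medium (0.3% DMSO). Phospho-Mer in lysates quantified by sandwich ELISA against phospho-Mer standard; normalised to DMSO (100%) and reference inhibitor (0%), IC50 from 4-parameter logistic fit.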
On the technique in general: An ELISA detects its analyte on a solid surface through an enzyme-linked reagent.

Another test deals with KDR (Homo sapiens (Human), UniProt P35968). In words: KDR autophosphorylation ELISA in HUVEC cells. It is filed as cell-based. The note with it: cellular, VEGF165 stimulated. In a few lines:
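Serum-starved (24 h) primary HUVEC were pretreated 1 h with compounds (8-point dilution, 0.3% DMSO final), then stimulated 5 min with 100 ng/mL VEGF165. Lysate phospho-KDR quantified by sandwich ELISA against a phospho-KDR standard; IC50 by 4-parameter fit, normalised to stimulated DMSO and unstimulated controls.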

Chain of KDR (P35968 20-1356): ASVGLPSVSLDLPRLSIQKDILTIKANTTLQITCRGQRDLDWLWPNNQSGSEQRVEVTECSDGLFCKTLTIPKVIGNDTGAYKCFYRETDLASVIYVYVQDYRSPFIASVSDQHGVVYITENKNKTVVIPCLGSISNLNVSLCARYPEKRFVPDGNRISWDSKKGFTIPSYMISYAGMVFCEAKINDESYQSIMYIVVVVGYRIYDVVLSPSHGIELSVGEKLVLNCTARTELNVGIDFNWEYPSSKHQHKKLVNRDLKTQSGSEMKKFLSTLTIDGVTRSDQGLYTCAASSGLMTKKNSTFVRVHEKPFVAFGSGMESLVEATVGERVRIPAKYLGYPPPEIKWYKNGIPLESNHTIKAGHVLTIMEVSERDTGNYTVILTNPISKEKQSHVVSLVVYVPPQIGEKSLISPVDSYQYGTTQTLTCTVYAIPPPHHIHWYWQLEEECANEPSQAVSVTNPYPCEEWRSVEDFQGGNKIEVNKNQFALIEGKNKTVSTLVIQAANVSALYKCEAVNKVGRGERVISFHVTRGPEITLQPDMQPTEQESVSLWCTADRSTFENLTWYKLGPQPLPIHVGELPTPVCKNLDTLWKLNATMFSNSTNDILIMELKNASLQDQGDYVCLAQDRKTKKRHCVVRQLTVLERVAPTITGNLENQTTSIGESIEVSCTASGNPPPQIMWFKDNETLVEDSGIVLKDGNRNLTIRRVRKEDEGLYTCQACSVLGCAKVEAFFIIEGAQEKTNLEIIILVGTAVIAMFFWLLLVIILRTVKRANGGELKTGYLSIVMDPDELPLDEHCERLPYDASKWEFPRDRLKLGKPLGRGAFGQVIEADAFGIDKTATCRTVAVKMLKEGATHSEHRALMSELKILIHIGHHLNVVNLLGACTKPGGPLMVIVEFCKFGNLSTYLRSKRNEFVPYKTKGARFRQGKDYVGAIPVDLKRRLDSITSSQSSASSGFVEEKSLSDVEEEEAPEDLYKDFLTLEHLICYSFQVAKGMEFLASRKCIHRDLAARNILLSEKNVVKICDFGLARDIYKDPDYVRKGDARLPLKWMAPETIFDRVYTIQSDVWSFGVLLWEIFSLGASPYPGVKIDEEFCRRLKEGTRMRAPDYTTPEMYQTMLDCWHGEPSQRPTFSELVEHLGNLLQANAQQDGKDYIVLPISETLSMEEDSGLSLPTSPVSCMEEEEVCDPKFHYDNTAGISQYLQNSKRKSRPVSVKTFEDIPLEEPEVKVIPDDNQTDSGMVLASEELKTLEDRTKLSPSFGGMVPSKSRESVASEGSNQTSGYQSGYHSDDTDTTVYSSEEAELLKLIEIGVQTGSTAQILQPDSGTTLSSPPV
Chain of Mer (Q12866 21-999): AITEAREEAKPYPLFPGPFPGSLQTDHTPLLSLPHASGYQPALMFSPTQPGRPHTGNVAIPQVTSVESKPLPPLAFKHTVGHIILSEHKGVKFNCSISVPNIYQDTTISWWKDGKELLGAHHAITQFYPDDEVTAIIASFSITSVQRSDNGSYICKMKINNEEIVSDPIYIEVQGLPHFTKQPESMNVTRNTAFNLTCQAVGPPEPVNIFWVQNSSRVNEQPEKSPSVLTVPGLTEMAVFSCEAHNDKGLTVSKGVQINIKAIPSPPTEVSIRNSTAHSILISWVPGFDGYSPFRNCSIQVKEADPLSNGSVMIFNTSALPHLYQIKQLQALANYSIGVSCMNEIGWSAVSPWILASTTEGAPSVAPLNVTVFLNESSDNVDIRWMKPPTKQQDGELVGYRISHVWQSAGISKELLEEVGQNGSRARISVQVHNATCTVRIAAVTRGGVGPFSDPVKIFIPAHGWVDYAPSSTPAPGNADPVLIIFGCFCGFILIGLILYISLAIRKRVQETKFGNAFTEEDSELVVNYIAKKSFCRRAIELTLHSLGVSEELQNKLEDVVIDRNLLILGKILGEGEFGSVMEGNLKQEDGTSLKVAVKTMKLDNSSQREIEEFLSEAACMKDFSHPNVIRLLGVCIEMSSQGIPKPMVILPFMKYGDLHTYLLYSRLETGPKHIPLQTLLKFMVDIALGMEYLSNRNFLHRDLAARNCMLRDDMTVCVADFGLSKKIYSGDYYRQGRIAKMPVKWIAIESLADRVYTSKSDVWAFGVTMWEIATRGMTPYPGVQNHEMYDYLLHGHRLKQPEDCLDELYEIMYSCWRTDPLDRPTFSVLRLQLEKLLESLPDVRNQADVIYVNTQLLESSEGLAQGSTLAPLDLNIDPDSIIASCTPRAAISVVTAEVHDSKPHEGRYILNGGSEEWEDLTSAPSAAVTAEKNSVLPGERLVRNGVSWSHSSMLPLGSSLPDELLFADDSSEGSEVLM

In general, IC50 refers to the concentration that gives 50% inhibition. On to `COc1cc2nccc(Oc3ccc(NC(=O)C4(C(=O)Nc5ccc(F)cc5)CC4)cc3)c2cc1C(N)=O` [Compound 7, 1-N-[4-(6-carbamoyl-7-methoxyquinolin-4-yl)oxyphenyl]-1-N′-(4-fluorophenyl)cyclopropane-1,1-dicarboxamide], for which the IC50 (in test [1]; against Mer; at KDR) was at most 10 nM in each case.
`CNC(=O)c1cc2c(Oc3ccc(NC(=O)C4(C(=O)Nc5ccc(F)cc5)CC4)cc3)ccnc2cc1OC` [Compound 8, 1-N′-(4-fluorophenyl)-1-N-[4-[7-methoxy-6-(methylcarbamoyl)quinolin-4-yl]oxyphenyl]cyclopropane-1,1-dicarboxamide]: the IC50 (in test [1]; on Mer; at KDR) was at most 10 nM throughout.
As for `CCNC(=O)c1cc2c(Oc3ccc(NC(=O)C4(C(=O)Nc5ccc(F)cc5)CC4)cc3)ccnc2cc1OC` [Compound 9, 1-N-[4-[6-(ethylcarbamoyl)-7-methoxyquinolin-4-yl]oxyphenyl]-1-N′-(4-fluorophenyl)cyclopropane-1,1-dicarboxamide], the IC50 against Mer and against KDR was at most 10 nM in each case.
Take `CONC(=O)c1cc2c(Oc3ccc(NC(=O)C4(C(=O)Nc5ccc(F)cc5)CC4)cc3)ccnc2cc1OC` [Compound 17, 1-N′-(4-fluorophenyl)-1-N-[4-[7-methoxy-6-(methoxycarbamoyl)quinolin-4-yl]oxyphenyl]cyclopropane-1,1-dicarboxamide]: the figures for the IC50 against Mer and at KDR were 10 to 100 nM and at most 10 nM, respectively.
In the case of `COc1cc2nccc(Oc3ccc(NC(=O)C4(C(=O)Nc5ccc(F)cc5)CC4)cc3)c2cc1-c1ncco1` [Compound 45, 1-N′-(4-fluorophenyl)-1-N-[4-[7-methoxy-6-(1,3-oxazol-2-yl)quinolin-4-yl]oxyphenyl]cyclopropane-1,1-dicarboxamide], the IC50 (in test [1]; at Mer; against KDR) was at most 10 nM each time.
In the case of `NC(=O)c1cc2c(Oc3ccc(NC(=O)C4(C(=O)Nc5ccc(F)cc5)CC4)cc3)ccnc2cc1OCCCN1CCOCC1` [Compound 98, 1-N-[4-[6-carbamoyl-7-(3-morpholin-4-ylpropoxy)quinolin-4-yl]oxyphenyl]-1-N′-(4-fluorophenyl)cyclopropane-1,1-dicarboxamide], the figures for the IC50 (in test [1]; against Mer; on KDR) were at most 10 nM, 10 to 100 nM and at most 10 nM, respectively.
`COc1cc2nccc(Oc3ccc(NC(=O)C4(C(=O)Nc5ccc(F)cc5)CC4)cc3Cl)c2cc1C(N)=O` [Compound 132, 1-N′-[4-(6-carbamoyl-7-methoxyquinolin-4-yl)oxy-3-chlorophenyl]-1-N-(4-fluorophenyl)cyclopropane-1,1-dicarboxamide]: the IC50 (in test [1]; against Mer; on KDR) was at most 10 nM in each case.
As to `COc1cc2nccc(Oc3ccc(NC(=O)C4(C(=O)Nc5ccc(F)cc5)CC4)cc3F)c2cc1C(N)=O` [Compound 133, 1-N′-[4-(6-carbamoyl-7-methoxyquinolin-4-yl)oxy-3-fluorophenyl]-1-N-(4-fluorophenyl)cyclopropane-1,1-dicarboxamide], the IC50 (in test [1]; at Mer; on KDR) was at most 10 nM in each case.
For the molecule `CNC(=O)c1cc2c(Oc3ccc(NC(=O)C4(C(=O)Nc5ccc(F)cc5)CC4)cc3Cl)ccnc2cc1OC` [Compound 134, 1-N′-[3-chloro-4-[7-methoxy-6-(methylcarbamoyl)quinolin-4-yl]oxyphenyl]-1-N-(4-fluorophenyl)cyclopropane-1,1-dicarboxamide], the IC50 (in test [1]; against Mer; at KDR) was at most 10 nM in each case.
Consider `COc1cc2nccc(Oc3ccc(NC(=O)C4(C(=O)Nc5ccc(F)cc5)CC4)cc3)c2cc1-c1ncc[nH]1` [Compound 191, 1-N′-(4-Fluorophenyl)-1-N-[4-[6-(1H-imidazol-2-yl)-7-methoxyquinolin-4-yl]oxyphenyl]cyclopropane-1,1-dicarboxamide], for which the IC50 against Mer and against KDR was at most 10 nM throughout.
